Measured values: paper PMC6099238 (Journal of Clinical Pharmacology, 2018)
Read-outs that look alike come from different tables or passages of the source.

Assays:
urinary urate excretion = experiment: Urinary excretion of urate, fractional excretion of urate and xanthine; type: in vivo, patients with gout
serum uric acid = experiment: Serum uric acid lowering, phase 1b open-label multiple-dose study; type: in vivo, patients with gout; settings: for serum uric acid: Change From Baseline, Emax (maximum percentage change from baseline in serum uric acid lowering) / serum uric acid: Change From Baseline, Predose / Subjects With Predose Serum Uric Acid <4 mg/dL / Subjects With Predose Serum Uric Acid <5 mg/dL / Subjects With Predose Serum Uric Acid <6 mg/dL: group 2; for serum uric acid: Change From Baseline, Emax (maximum percentage change from baseline in serum uric acid lowering) / serum uric acid: Change From Baseline, Predose: ALLO 300 mg/day alone (day 7), ALLO 300 mg/LESU 600 mg (day 14), LESU 600 mg/day alone (day 21), % (SE); for Subjects With Predose Serum Uric Acid <4 mg/dL / Subjects With Predose Serum Uric Acid <5 mg/dL / Subjects With Predose Serum Uric Acid <6 mg/dL: ALLO 300 mg/day alone (day 7, n = 10), ALLO 300 mg/LESU 600 mg (day 14, n = 10), LESU 600 mg/day alone (day 21, n = 9)
[1] = type: in vivo, patients with gout
URAT1 = settings: cited from earlier work
[2] = ALLO 300 mg/LESU 400 mg versus ALLO 300 mg alone
[3] = ALLO 300 mg/LESU 600 mg versus ALLO 300 mg alone

Question: Which “decrease of 24‐hour urate excretion compared with baseline” value (urinary urate excretion; allopurinol 300 mg alone) does the source give for `Oc1ncnc2[nH]ncc12` [allopurinol] here?
Answer: ~35%

Question: And the “Mean 24‐hour urate excretion compared with baseline” value (urinary urate excretion; allopurinol 300 mg/day alone)?
Answer: –35%

Question: And the “effect on fractional excretion of urate” value (urinary urate excretion; single agent)?
Answer: no effect

Question: What about the “effect on xanthine excretion (urine)” value (urinary urate excretion; single agent) of the same compound?
Answer: increased

Question: What about the “Emax (serum uric acid lowering)” value (serum uric acid; allopurinol 300 mg (discussion)) of the same compound?
Answer: −37%

Question: And the “serum uric acid reduced by” value (serum uric acid; allopurinol 300 mg/day alone (abstract))?
Answer: 37%

Question: And the “serum uric acid: Change From Baseline, Emax (maximum percentage change from baseline in serum uric acid lowering)” value (serum uric acid)?
Answer: −35.1 (2.3) %

Question: And the “serum uric acid: Change From Baseline, Predose” value (serum uric acid)?
Answer: −28.7 (2.4) %

Question: What about the “Subjects With Predose Serum Uric Acid <4 mg/dL” value (serum uric acid) of the same compound?
Answer: 0 n (%)

Question: What about the “Subjects With Predose Serum Uric Acid <5 mg/dL” value (serum uric acid) of the same compound?
Answer: 1 (10) n (%)

Question: What about the “Subjects With Predose Serum Uric Acid <6 mg/dL” value (serum uric acid) of the same compound?
Answer: 3 (30) n (%)

Question: For `O=c1[nH]c(=O)c2c[nH]nc2[nH]1` [oxypurinol], which “Oxypurinol AUC0‐24 Geometric Mean Ratio (90%CI) (Combination/Alone)” value [1, 2] is on record?
Answer: 74.2 (65.1‐84.7)

Question: What about the “Oxypurinol Cmax Geometric Mean Ratio (90%CI) (Combination/Alone)” value [1, 2] of the same compound?
Answer: 79.4 (69.8‐90.3)

Question: And the “Oxypurinol AUC0‐24 Geometric Mean Ratio (90%CI) (Combination/Alone)” value [1, 3]?
Answer: 64.7 (61.3‐68.3)

Question: What about the “Oxypurinol Cmax Geometric Mean Ratio (90%CI) (Combination/Alone)” value [1, 3] of the same compound?
Answer: 71.7 (67.8‐75.7)

Question: And the “Decrease of oxypurinol plasma concentrations” value ([1]; during co-administration of lesinurad 400 mg with allopurinol 300 mg)?
Answer: approximately 26%

Question: And the “Decrease of oxypurinol plasma concentrations” value ([1]; during co-administration of lesinurad 600 mg with allopurinol 300 mg)?
Answer: ~35%

Question: And the Cmax ([1]; human, plasma, oral, Oxypurinol Cmax, ALLO 300 mg/LESU 600 mg co-administration, geometric mean, n = 10)?
Answer: 9660 ng/mL

Question: And the “Oxypurinol Tmax” value ([1]; plasma, ALLO 300 mg alone, group 1 (before LESU 400 mg), median (range), n = 10)?
Answer: 4.00 (3.00‐6.00) h

Question: What about the “Oxypurinol Cmax” value ([1]; plasma, ALLO 300 mg/LESU 400 mg co-administration, geometric mean, n = 10) of the same compound?
Answer: 9.82 (8.66‐11.1) μg/mL

Question: What about the transporter substrate (URAT1) of the same compound?
Answer: substrate of URAT1

Question: For `O=C(O)CSc1nnc(Br)n1-c1ccc(C2CC2)c2ccccc12` [lesinurad], which “effect on xanthine excretion (urine)” value (urinary urate excretion; single agent) is on record?
Answer: no significant effect

Question: And the “serum uric acid: Change From Baseline, Emax (maximum percentage change from baseline in serum uric acid lowering)” value (serum uric acid)?
Answer: −46.7 (5.5) %

Question: And the “serum uric acid: Change From Baseline, Predose” value (serum uric acid)?
Answer: −37.2 (1.6) %

Question: And the “Subjects With Predose Serum Uric Acid <4 mg/dL” value (serum uric acid)?
Answer: 0 n (%)

Question: What about the “Subjects With Predose Serum Uric Acid <5 mg/dL” value (serum uric acid) of the same compound?
Answer: 3 (33) n (%)

Question: And the “Subjects With Predose Serum Uric Acid <6 mg/dL” value (serum uric acid)?
Answer: 6 (67) n (%)

Question: What about the “serum uric acid reduced by” value (serum uric acid; lesinurad 400 mg/day, added to allopurinol 300 mg/day or alone (abstract)) of the same compound?
Answer: 44%

Question: What about the “serum uric acid reduced by” value (serum uric acid; lesinurad 600 mg/day, added to allopurinol 300 mg/day or alone (abstract)) of the same compound?
Answer: 47%
